Laboratory results published in patent US5138101A, “Recovery of high-boiling aldehydes from rhodium-catalyzed hydroformylation processes” (Eastman Kodak Company, priority 1991, dated 1992).

Columns and labels:
[1] = Partitioning (partition coefficient, Kp) of hydroformylation products and hydroformylation solvent between hydroformylation solvent phase and alkanol/water extraction solution phase; type: physicochemical
Excerpt: The extraction process described herein is the equilibration of a particular compound dissolving into two separate liquid phases. The effectiveness of the present extraction process may be measured in terms of the partition coefficient (Kp) for a compound "X" which is defined as: [formula] […] High Kp values give high extraction efficiencies requiring lower amounts of extraction solution. Similarly, it is desirable that the Kp of the hydroformylation solvent be a low value. This simplifies purification of the aldehyde products down-stream. In the hydroformylation of diolefins to dialdehydes, it also is desirable to have Kp values for the dialdehyde products larger than the Kp values of the intermediate mono-aldehyde mono-olefin (formyl-olefin) intermediate formed in the hydroformylation reaction. This permits recycling of the formyl-olefin to the hydroformylation reactor in the hydroformylation solvent for further reaction to the desired dialdehyde product, while selectively extracting the desired di-aldehyde product. Likewise, for the same reason, it is desirable to have low Kp values for the olefin or polyolefin feedstocks used in the process.
The extraction examples were carried out in a 300 mL, 3-neck, glass flask equipped with a Teflon magnetic stir bar, a thermometer to measure the temperature of the liquid, a septum for the use of a syringe, a heating mantle and a nitrogen bubbler blanket for the system. […] […] The mixture was stirred at 25° C. for 30 minutes to reach equilibrium, stirring was stopped, and the mixture was allowed to separate into 2 layers (phases) over a 30 minute period of time. […] Samples of each phase were taken with a syringe and chromatographed on a Hewlett Packard Model 5730 capillary FID gas chromatograph. The instrument used a 30 meter DB-1 column (Supelco.) with a programming rate of a 4 minute hold at 70° C. with a programming rate of 8° C./minute to 250° C. The calculations for the weights of hydroformylation products in each phase were carried out using standard procedures using the dodecane as an internal standard for the catalyst layer and methanol as the internal standard for the aqueous layer. The initial volumes of the two phases were used for estimation of the volumes of the two phases at equilibrium to obtain the concentrations of the products in each phase.
The partition coefficients (Kp) were calculated for the C9-enal and C10-dial products for equilibrium between the dodecane hydroformylation solvent and the extraction solution phases at 25° C.
The two phases in the flask were heated to and maintained at 53° C. with stirring for 30 minutes to reach equilibrium. The mixture was allowed to separate into 2 layers at 53° C. and each layer was sampled and analyzed as described above. […] The partitioning procedure was repeated at 70° C.

[2] = Extraction and back-extraction with p-diisopropylbenzene or 1,7-octadiene: rhodium concentration in both phases, composition of extraction solution; type: physicochemical
Procedure: Examples […] illustrate yet another embodiment of the process of the present invention wherein extraction solution containing dissolved rhodium is back-extracted with either hydroformylation solvent or olefinic feedstock to reduce the concentration of rhodium in the extraction solution.
The general procedure described in Examples 31-48 was used to extract 60.5 mL of hydroformylation product solution obtained by the hydroformylation of 1,7 octadiene in the presence of a catalyst system comprising rhodium and BISBI phosphine (Reference Example 9). […] The extraction flask was charged with the hydroformylation product solution, 37 mL methanol, 12 mL water and […] [Na] provided as sodium oleate.
For Example 88, the extraction mixture was stirred at room temperature for 30 minutes and then drained into a calibrated, addition funnel and allowed to stand for about five minutes to permit phase separation. The volume of the hydroformylation product solution (organic) phase was 45 mL and the volume of the extraction solution phase was 65 ml. Samples of each phase were taken for rhodium and product composition analyses.
For Example 89, the extraction solution phase separated in Example 88 was added to a clean 250 mL flask along with 30 mL of p-diisopropylbenzene and the mixture was stirred at 50° C. for 30 minutes, was allowed to stand at 50° C. for about 5 minutes to permit phase separation and then each phase was separated and analyzed for composition and rhodium concentration.
For Example 90, the extraction solution separated in Example 89 was added to a clean 250 mL flask along with another 30 mL of p-diisopropylbenzene hydroformylation solvent. The mixture was agitated at 50° C. for thirty minutes, allowed to stand at 50° C. for 5 minutes to permit phase separation and each phase was analyzed for composition and rhodium concentration.
This scheme would be useful in a counter-current extraction method for recycling recovered hydroformylation product solution as well as in using the olefinic feed to the reactor as a back extraction solvent for recovering soluble rhodium from the methanol/water extract.
Example 91 was carried out using the procedure described in Examples 88. The flask was charged with 62 mL of a hydroformylation product solution (Reference Example 10) having a rhodium concentration 166 mg/L and containing 3.01 g of C9-enal, 12.69 g of C10-dial and 37.84 grams of p-diisopropylbenzene. Methanol (37 ml), water (16 ml) and 78 mg Na (as sodium 2-ethylhexanoate) were added to the flask. This mixture was stirred at 50° C. for 30 minutes and then allowed to stand for 5 minutes at 50° C. to permit phase separation. The hydroformylation product solution (organic) phase and the extraction solution phase were both sampled and analyzed for rhodium concentration. The 2 phases were drained into a clean, graduated addition funnel and the volumes of the two phases were measured. The volume of the organic layer was 43 mL and the extraction solution layer was 62 mL.
For Example 92, the extraction solution phase produced in Example 91 was added to a clean, 250 mL flask along with 30 mL of p-diisopropylbenzene and the mixture was stirred at 50° C. for 30 minutes and then allowed to separate into two phases. The two phases were analyzed for rhodium concentration and composition. The mixture was drained into a clean addition funnel to separate the two phases. For Example 93, the extraction solution phase of Example 92 and 30 mL of 1,7-octadiene were added to a clean, 250 mL flask. This mixture was stirred at 50° C. for 30 minutes and then allowed to separate into two phases which were analyzed for rhodium concentration.
The amounts (g) of C9-enal, C10-dial in the sample of hydroformylation product solution initially extracted and in the methanol/water extraction solutions resulting from Examples 91, 92 and 93 are given in Table XIII. The ratio given in Table XIII is the weight ratio of C10-dial:C9-enal. […]

[3] = Example 92, after p-diisopropylbenzene back-extraction
[4] = Example 93, after 1,7-octadiene back-extraction

## C1CCC2CCCCC2C1 (stereo not drawn) [decahydronaphthalene]
[1]; Example C-4, Ref. Ex. 17, DEG:water 1:1, 25° C.
  Partition Coefficient: 0.0050
[1]; Example C-5, Ref. Ex. 17, DEG:water 1:1, 70° C.
  Partition Coefficient: 0.034

## CCCCC(CC)COC(=O)c1ccccc1C(=O)OCC(CC)CCCC (stereo not drawn) [di-(2-ethylhexyl) phthalate]
[1]; Example 16, Ref. Ex. 23, MeOH:water 3:1, 50° C.
  Partition Coefficient: 0.0448
[1]; Example 17, Ref. Ex. 23, MeOH:water 1:1, 50° C.
  Partition Coefficient: 0.0037

## c1ccc2c(c1)CCCC2 [tetrahydronaphthalene]
[1]; Example 15, Ref. Ex. 22, MeOH:water 1.5:1, 52° C.
  Partition Coefficient: 0.079
[1]; Example C-6, Ref. Ex. 18, DEG:water 3:1, 25° C.
  Partition Coefficient: 0.092

## isomeric decanedialdehyde [C10-dial]
[2]; Example 91
  Composition of Extraction Solution (amount): 11.67 g
  Weight ratio of C10-dial:C9-enal in extraction solution: 8.40
[2]; Example 92
  Weight ratio of C10-dial:C9-enal in extraction solution: 18.06
[2]; [3]
  Composition of Extraction Solution (amount): 9.21 g
[2]; Example 93
  Weight ratio of C10-dial:C9-enal in extraction solution: 33.94
[2]; [4]
  Composition of Extraction Solution (amount): 6.11 g

## isomeric noneneal [C9-enal]
[2]; Example 91
  Composition of Extraction Solution (amount): 1.39 g
[2]; [3]
  Composition of Extraction Solution (amount): 0.51 g
[2]; [4]
  Composition of Extraction Solution (amount): 0.18 g
